Tested on: 935938-334-R-J1-PDC spheroids with HUVEC/MSC, viability
Experiment: Anticancer human tumor 935938-334-R-J1-PDC patient-derived small intestine adenocarcinoma cell line growth inhibition [PI3K]
Conditions: for IC50: curve of first compound; for viability, T/C: stronger effect = lower value
Procedure, shortened: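 Three cell types, namely tumor cells, endothelial cells and mesenchymal stem cells, formed each spheroid. Combinations with four PI3K inhibitors were screened at clinically achievable concentrations decreasing by half-log, and spheroid viability was recorded.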

[1] = second compound 0.0316 µM, first compound 0.000316 µM
[2] = second compound 0.0316 µM, first compound 0.001 µM
[3] = second compound 0.0316 µM, first compound 0.00316 µM
[4] = second compound 0.0316 µM, first compound 0.01 µM
[5] = second compound 0.0316 µM, first compound 0.0316 µM
[6] = second compound 0.0316 µM, first compound 0.1 µM
[7] = second compound 0.1 µM, first compound 0.000316 µM
[8] = second compound 0.1 µM, first compound 0.001 µM
[9] = second compound 0.1 µM, first compound 0.00316 µM
[10] = second compound 0.1 µM, first compound 0.01 µM
[11] = second compound 0.1 µM, first compound 0.0316 µM
[12] = second compound 0.1 µM, first compound 0.1 µM
[13] = second compound 0.316 µM, first compound 0.000316 µM
[14] = second compound 0.316 µM, first compound 0.001 µM
[15] = second compound 0.316 µM, first compound 0.00316 µM
[16] = second compound 0.316 µM, first compound 0.01 µM
[17] = second compound 0.316 µM, first compound 0.0316 µM
[18] = second compound 0.316 µM, first compound 0.1 µM
[19] = second compound 1 µM, first compound 0.000316 µM
[20] = second compound 1 µM, first compound 0.001 µM
[21] = second compound 1 µM, first compound 0.00316 µM
[22] = second compound 1 µM, first compound 0.01 µM
[23] = second compound 1 µM, first compound 0.0316 µM
[24] = second compound 1 µM, first compound 0.1 µM
[25] = second compound 3.16 µM, first compound 0.000316 µM
[26] = second compound 3.16 µM, first compound 0.001 µM
[27] = second compound 3.16 µM, first compound 0.00316 µM
[28] = second compound 3.16 µM, first compound 0.01 µM
[29] = second compound 3.16 µM, first compound 0.0316 µM
[30] = second compound 3.16 µM, first compound 0.1 µM
[31] = second compound 10 µM, first compound 0.000316 µM
[32] = second compound 10 µM, first compound 0.001 µM
[33] = second compound 10 µM, first compound 0.00316 µM
[34] = second compound 10 µM, first compound 0.01 µM
[35] = second compound 10 µM, first compound 0.0316 µM
[36] = second compound 10 µM, first compound 0.1 µM
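Note: compound exposure lasted seven days before viability was read.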
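Throughout, for viability, T/C: percent of vehicle DMSO treated spheroid viability so 100% = untreated.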

With `CC(=O)c1c(C)c2cnc(Nc3ccc(N4CCNCC4)cn3)nc2n(C2CCCC2)c1=O` + Cc1nc(NC(=O)N2CCCC2C(N)=O)sc1-c1ccnc(C(C)(C)C(F)(F)F)c1 the IC50 (second compound 0.0316 µM) was > 100 nM, the IC50 (second compound 0.1 µM) was > 100 nM and the IC50 (second compound 0.316 µM) was 58.2 nM. For the same compound, the IC50 (second compound 1 µM) was 27.8 nM, the IC50 (second compound 3.16 µM) was 2.55 nM and the IC50 (second compound 10 µM) was < 0.316 nM. It also gave a viability, T/C [1] of 104%, a viability, T/C [2] of 95.7% and a viability, T/C [3] of 112%. For the same compound, the viability, T/C [4] was 102%, the viability, T/C [5] was 74.8% and the viability, T/C [6] was 55.9%. It also gave a viability, T/C [7] of 94.4%, a viability, T/C [8] of 96.5% and a viability, T/C [9] of 89.4%. The viability, T/C [10] was 78.5%, the viability, T/C [11] was 85.7% and the viability, T/C [12] was 52.8%. It also gave a viability, T/C [13] of 87.8%, a viability, T/C [14] of 75% and a viability, T/C [15] of 63.4%. For the same compound, the viability, T/C [16] was 80.7%, the viability, T/C [17] was 51.6% and the viability, T/C [18] was 44.1%. For the same compound, the viability, T/C [19] was 77%, the viability, T/C [20] was 49.8% and the viability, T/C [21] was 63.3%. The viability, T/C [22] was 76.4%, the viability, T/C [23] was 47.9% and the viability, T/C [24] was 31.1%. For the same compound, the viability, T/C [25] was 67.2%, the viability, T/C [26] was 61.8% and the viability, T/C [27] was 43.7%. For the same compound, the viability, T/C [28] was 42%, the viability, T/C [29] was 33.1% and the viability, T/C [30] was 29.9%. The viability, T/C [31] was 39.5%, the viability, T/C [32] was 40% and the viability, T/C [33] was 35.3%. For the same compound, the viability, T/C [34] was 37.2%, the viability, T/C [35] was 33.3% and the viability, T/C [36] was 26.5%.
With `CC(C)n1nc(-c2ccc3oc(N)nc3c2)c2c(N)ncnc21` + Cc1nc(NC(=O)N2CCCC2C(N)=O)sc1-c1ccnc(C(C)(C)C(F)(F)F)c1 the IC50 (second compound 0.0316 µM) was > 100 nM, the IC50 (second compound 0.1 µM) was > 100 nM and the IC50 (second compound 0.316 µM) was 17 nM. The IC50 (second compound 1 µM) was 7.19 nM, the IC50 (second compound 3.16 µM) was 3.77 nM and the IC50 (second compound 10 µM) was < 0.316 nM. It also gave a viability, T/C [1] of 91.5%, a viability, T/C [2] of 91% and a viability, T/C [3] of 81.3%. It also gave a viability, T/C [4] of 93.6%, a viability, T/C [5] of 64.9% and a viability, T/C [6] of 51.6%. For the same compound, the viability, T/C [7] was 89%, the viability, T/C [8] was 82.1% and the viability, T/C [9] was 75.9%. It also gave a viability, T/C [10] of 92%, a viability, T/C [11] of 68.7% and a viability, T/C [12] of 54.5%. The viability, T/C [13] was 83.4%, the viability, T/C [14] was 72.2% and the viability, T/C [15] was 92.8%. It also gave a viability, T/C [16] of 54.1%, a viability, T/C [17] of 54.9% and a viability, T/C [18] of 35.5%. The viability, T/C [19] was 66.5%, the viability, T/C [20] was 74.3% and the viability, T/C [21] was 66.8%. It also gave a viability, T/C [22] of 42.5%, a viability, T/C [23] of 37.6% and a viability, T/C [24] of 27.1%. For the same compound, the viability, T/C [25] was 51%, the viability, T/C [26] was 59.8% and the viability, T/C [27] was 47.8%. The viability, T/C [28] was 43%, the viability, T/C [29] was 27.3% and the viability, T/C [30] was 28.9%. It also gave a viability, T/C [31] of 35.5%, a viability, T/C [32] of 37.7% and a viability, T/C [33] of 61.5%. For the same compound, the viability, T/C [34] was 35%, the viability, T/C [35] was 37.3% and the viability, T/C [36] was 30.1%.
